Values joined by “and” are separate entries in the source; they are usually repeats but may differ in a detail not shown here. Equal values may be shown once.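 Results reflect a 48-hour exposure of cells in 96-well plates to compound at five concentrations. GI50: concentration for 50% inhibition of growth. TGI denotes the concentration required for complete inhibition of growth.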
Tested on: MDA-MB-468 breast
Experiment: NCI tumour cell line growth inhibition, 48 h

| Structure (SMILES) | GI50 | TGI |
| --- | --- | --- |
| Cc1ccc(CCC(=O)Nc2ncc(Cc3cc(Cl)ccc3Cl)s2)o1 | 0.266 µM | 20.7 µM |
| CCN1CCN(C(=O)[C@]23CC[C@@H](C)[C@H](C)[C@@H]2C2=CC[C@@H]4[C@@]5(C)C/C(=C/c6cccnc6)C(=O)C(C)(C)[C@@H]5CC[C@@]4(C)[C@]2(C)CC3)CC1 | 1.65 µM | 3.43 µM |
| COc1ccc([C@H]2c3cc(OC)c(OC)cc3C=C(C=O)C2CO)cc1OC (some centres undefined) | 2.55 µM | 25.1 µM |
| COc1ccc(/C=C2/SC(=Nc3c(C)nn(-c4ccccc4)c3N)NC2=O)cc1 | 3.24 µM | 12.4 µM |
| O=C(CCCCCCc1nc2ccc(Br)cc2[nH]1)NO | 0.248 µM | 6.37 µM |
| COc1ccccc1/C=C1\COc2ccc(O)c(O)c2C1=O | 1.24 µM | 3.29 µM |
| COc1ccc(CN2CCc3c(Cl)nc(N)nc3C2=O)c(OC)c1 | 5.85 µM | 33.1 µM |
| CC[C@]1(O)C[C@@H]2CN(Cc3c([nH]c4ccccc34)[C@@](C(=O)OC)(c3cc4c(cc3OC)N(C)[C@H]3[C@@](O)(C(=O)OC)[C@H](OC(C)=O)[C@]5(CC)[C@@H]6C[C@@H]6CN6CC[C@]43[C@@H]65)C2)C1 | 0.017 µM |  |
| COc1cc[c]([Hg][Cl])cc1 | 1.66 µM | 3.35 µM |
| CCOC(=O)c1c(NC(=O)c2ccc(C(F)(F)F)cc2)sc2c3c(ccc12)OCN(C)C3 | 1.56 µM | 3.18 µM |
| COc1ccc(C(=O)c2cc3c(N)c(C(=O)Nc4cccc(Cl)c4)sc3nc2C)cc1 | 0.859 µM | 2.83 µM |
| COc1cc(-c2cc(-c3ccc(N(C)C)cc3)nc(N3CCC(O)CC3)c2C#N)cc(OC)c1OC | 1.11 µM | 4.08 µM |
| CC/C=C/[C@@H]1C=C[C@@H]2CCC[C@H]2[C@@H]1CC[C@H](O)[C@H](C)N | 1.24 µM | 2.69 µM |
| C#Cc1cccc(NC(=O)Nc2ccccc2NC(=O)CCl)c1 | 16 µM | 39.3 µM |
| O=C(Nc1ccccc1)c1cc2c(cc1Cl)Sc1nccn1S2(=O)=O | 5.47 µM | 26.3 µM |
| CCN(CC)CCCCCCCCNc1c2ccc(Cl)cc2nc2ccc(OC)cc12 | 1.44 µM | 2.77 µM |
| COc1c(O)c2ccccc2c2cc(O)ccc12 | 3.7 µM | 15 µM |
| O=C(Nc1ccc(Cl)c(Cl)c1)Nc1ccc(Cl)c([N+](=O)[O-])c1 | 0.884 µM | 3.52 µM |
| CC/C(=C(\c1ccccc1)c1ccc(OCCN(C)C)cc1)c1ccccc1 | 1.34 µM and 1.95 µM and 3.92 µM | 6.48 µM and 5.44 µM and 7.97 µM |
| CCc1cc(C(N)=O)ccc1-n1nc(C(C)C)c2c(-n3cnc(-c4cnn(C)c4)c3)ccnc21 | 0.821 µM | > 22.2 µM |
| CCOc1ccc([C@H]2C(C(=O)c3ccc(Cl)cc3)C3(N[C@@H]2c2ccccc2)C(=O)Nc2ccc(Br)cc23)cc1 (some centres undefined) | 16.6 µM | 41.8 µM |
| CCc1nc(N)nc(N)c1-c1ccc(Cl)cc1 | 11.4 µM | > 100 µM |

| Structure (SMILES) | GI50 | TGI |
| --- | --- | --- |
| CCN1CCC(C(=O)Nc2n[nH]c3nnc(-c4cccc(F)c4F)cc23)CC1 | 2.32 µM | 6.78 µM |
| CCOC(=O)c1cnc2ccc(Cl)cc2c1NCCCN(C)C | 16.2 µM | 45.4 µM |
| CCOC(=O)c1cc2c(n1Cc1cccc(OC)c1)-c1oncc1CC2 | 0.346 µM | 2.49 µM |
| O=c1ccc2nc(-c3ccccc3)nn(-c3ccccc3)c-2c1 | 1.02 µM | 2.4 µM |
| N#Cc1c(N)nn(C(=O)c2ccc(NC(=O)c3ccccn3)cc2)c1-c1ccc(Cl)cc1 | 2.43 µM | 6.64 µM |
| COc1ccc(C(=O)CC2(O)C(=O)Nc3c(Cl)ccc(Cl)c32)cc1 (centres undefined) | 0.536 µM |  |
| FC(F)(F)c1ccc2nc(-c3nc(-c4ccccc4)n4ccccc34)[nH]c2c1 | 2.02 µM | 7.31 µM |
| C(=N\Nc1ncc(-c2cc3cc4c(cc3o2)OCO4)s1)/c1c[nH]c2ccccc12 | 1.01 µM | 6.05 µM |
| Cc1ncc(C(=O)Nc2ccc(CN3CCN(C)CC3)c(C(F)(F)F)c2)cc1C#Cc1c(N)ncc2ccc(C#N)cc12 | 7.86 µM | 28.1 µM |
| O=C1CCC/C=C\C[C@H]2C=C(Cl)C(=O)/C2=C/C[C@H](CCCCC(F)(F)F)OC(=O)CCC/C=C\C[C@H]2C=C(Cl)C(=O)/C2=C/C[C@H](CCCCC(F)(F)F)O1 | 0.239 µM | 0.721 µM |
| COc1cc([C@@H]2c3cc4c(cc3[C@H](OC3OC5COC(c6ccccc6)OC5C(O)C3O)[C@H]3COC(=O)[C@H]23)OCO4)cc(OC)c1OC (some centres undefined) | 0.472 µM | 19.6 µM |
| COC12C=C/C(=C(/C(=O)OCc3ccncn3)C(=O)CCCCCCCCC3(OC)C=C/C(=C(/C(=O)OCc4ccncn4)C(=O)CCCCCCCC1)O3)O2 | 0.239 µM | 0.682 µM |
| Cc1cc(Cl)n2c(nc3ccccc32)c1C#N | 0.394 µM | 1.84 µM |
| C=C1C(=O)O[C@@H]2[C@@H]3O[C@@](C)(CC/C=C(\C)CCC[C@@H]2C)[C@H](O)C[C@@H]13 | 1.15 µM | 2.8 µM |
| C=C1C(=O)OC(CCCCCCCC)C1C(=O)O (centres undefined) | 5.61 µM | 16.7 µM |
| CCN(CC)CCn1c(=N)n(CC(O)c2ccc(Cl)c(Cl)c2)c2ccccc21 (centres undefined) | 2.49 µM | 8.09 µM |
| CC(C)Oc1cc(OCC(=O)O)cc(C(=O)N(CCC(N)=O)C(=O)Nc2ccc(C(=O)O)cc2OC(C)C)c1 | > 100 µM | > 100 µM |
| CC(C)(O)Cn1c(=O)c(Oc2ccc(F)cc2F)cc2cnc(NC3CCOCC3)nc21 | > 25 µM | > 25 µM |
| Cc1cc2c(-c3nc4ccccc4[nH]3)c(O)c(O)cc2c(O)c1-c1c(C)cc2c(-c3nc4ccccc4[nH]3)c(O)c(O)cc2c1O | 0.02 µM | 0.601 µM |
| N#C/C(=C\c1ccc(-c2ccc(F)cc2)o1)C(=O)Nc1ncc(Cc2ccc(Cl)cc2Cl)s1 | 2.17 µM | 5.01 µM |
| CCCCc1ccc2nc(NC(=O)OC)[nH]c2c1 | 0.107 µM | 1.6 µM |

Reference: PubChem BioAssay (NCI)
